Measured values as given in ChEMBL document CHEMBL4507258 (2021).

How the values were obtained:
[1] = biological target: Sodium-dependent noradrenaline transporter (Homo sapiens) (UniProt P23975); settings: Compound concentration 10.0 uM
[2] = biological target: Alpha-2C adrenergic receptor (Homo sapiens) (UniProt P18825); settings: Compound concentration 10.0 uM
[3] = biological target: 5-hydroxytryptamine receptor 1D (Homo sapiens) (UniProt P28221); settings: Compound concentration 10.0 uM
[4] = biological target: 5-hydroxytryptamine receptor 2B (Homo sapiens, UniProt P41595); experiment: GPCRScan assay: inhibition of 5-HT2B; design: radioligand conc. used [nm] 1.0 – 2.0, parental cells stable HEK
[5] = biological target: Beta-1 adrenergic receptor (Homo sapiens) (UniProt P08588); settings: Compound concentration 10.0 uM
[6] = biological target: Sodium channel (site 1) (Homo sapiens, UniProt P35498+P35499+Q01118+Q14524+Q15858+Q99250+Q9NY46+Q9UI33+Q9UQD0+Q9Y5Y9); experiment: Na+ channel (site1) CEREP ligand profiling; assay type: protein assay; settings: compound concentration 10 uM
[7] = biological target: Mu-type opioid receptor (Homo sapiens, UniProt P35372); experiment: mu-Opioid receptor (h) CEREP ligand profiling; settings: Compound concentration 10.0 uM
[8] = biological target: 5-hydroxytryptamine receptor 2C (Homo sapiens) (UniProt P28335); experiment: 5-Hydroxytryptamine2C (h) CEREP ligand profiling; settings: Compound concentration 10.0 uM
[9] = GABA receptor (non-selective) CEREP ligand profiling; settings: Compound concentration 10.0 uM
[10] = biological target: B2 bradykinin receptor (Homo sapiens) (UniProt P30411); experiment: Bradykinin B2 receptor (h) CEREP ligand profiling; settings: Compound concentration 10.0 uM
[11] = biological target: Adrenergic receptor alpha-2 (Homo sapiens) (UniProt P08913+P18825+P18089); experiment: alpha2-adrenoceptor (non-selective) CEREP ligand profiling; assay type: protein assay; settings: Compound concentration 10.0 uM
[12] = biological target: Voltage-gated (volt-dependent) potassium channel (Homo sapiens, UniProt O43525+O43526+O95259+P16389+P17658+P22001+P22459+P22460+P48547+P51787+P56696+Q03721+Q09470+Q12809+Q14003+Q14721+Q16322+Q6PIU1+Q8NCM2+Q8TAE7+Q8TDN1+Q8TDN2+Q92953+Q96KK3+Q96L42+Q96PR1+Q96RP8+Q9BQ31+Q9H252+Q9H3M0+Q9NR82+Q9NS40+Q9NSA2+Q9NZV8+Q9UIX4+Q9UJ96+Q9UK17+Q9ULD8+Q9ULS6+Q9UQ05); experiment: K+ channel (volt-dependent) CEREP ligand profiling; assay type: protein assay; settings: compound concentration 10 uM
[13] = biological target: Muscarinic acetylcholine receptor M4 (Homo sapiens) (UniProt P08173); experiment: Muscarinic M4 receptors (h) CEREP ligand profiling; settings: Compound concentration 10.0 uM
[14] = biological target: 5-hydroxytryptamine receptor 5A (Homo sapiens) (UniProt P47898); experiment: 5-Hydroxytryptamine5A (h) CEREP ligand profiling; settings: Compound concentration 10.0 uM
[15] = biological target: Thromboxane A2 receptor (Homo sapiens) (UniProt P21731); experiment: Thromboxane A2/ prostaglandin H2 receptors CEREP ligand profiling; settings: Compound concentration 10.0 uM
[16] = biological target: Type-1 angiotensin II receptor (Homo sapiens) (UniProt P30556); experiment: Angiotensin AT1 receptor (h) CEREP ligand profiling; settings: Compound concentration 10.0 uM
[17] = biological target: Adenosine receptor A3 (Homo sapiens) (UniProt P0DMS8); experiment: Adenosine A 3 receptor (h) CEREP ligand profiling; settings: Compound concentration 10.0 uM
[18] = biological target: Cholecystokinin receptor type A (Homo sapiens) (UniProt P32238); experiment: CholecystokininA receptor (h) CEREP ligand profiling; settings: Compound concentration 10.0 uM
[19] = biological target: 5-hydroxytryptamine receptor 6 (Homo sapiens) (UniProt P50406); experiment: 5-Hydroxytryptamine6 (h) CEREP ligand profiling; settings: Compound concentration 10.0 uM
[20] = biological target: Substance-P receptor (Homo sapiens) (UniProt P25103); experiment: Neurokinin-1 receptor (h) CEREP ligand profiling; settings: Compound concentration 10.0 uM
[21] = biological target: T1, 5-hydroxytryptamine receptor 3A (Homo sapiens) (UniProt P46098); experiment: 5-Hydroxytryptamine3 CEREP ligand profiling; settings: Compound concentration 10.0 uM
T1 sequence (whole entry): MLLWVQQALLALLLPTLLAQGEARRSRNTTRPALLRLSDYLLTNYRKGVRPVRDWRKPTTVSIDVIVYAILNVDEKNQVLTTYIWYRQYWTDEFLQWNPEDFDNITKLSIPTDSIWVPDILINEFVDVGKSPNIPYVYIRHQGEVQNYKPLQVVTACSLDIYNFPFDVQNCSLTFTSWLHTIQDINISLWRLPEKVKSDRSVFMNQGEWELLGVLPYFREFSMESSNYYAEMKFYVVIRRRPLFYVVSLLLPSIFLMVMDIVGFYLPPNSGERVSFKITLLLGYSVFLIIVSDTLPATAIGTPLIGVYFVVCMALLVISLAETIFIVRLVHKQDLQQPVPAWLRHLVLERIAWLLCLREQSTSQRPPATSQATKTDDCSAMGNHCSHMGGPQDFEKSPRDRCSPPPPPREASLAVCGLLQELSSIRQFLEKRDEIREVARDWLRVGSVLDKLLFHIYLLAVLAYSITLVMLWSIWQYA

[22] = biological target: Neuromedin-K receptor (Homo sapiens) (UniProt P29371); experiment: NK3 tachykinin receptor (h) CEREP ligand profiling; settings: Compound concentration 10.0 uM
[23] = biological target: Somatostatin receptor (Homo sapiens) (UniProt P35346+P30874+P31391+P30872+P32745); experiment: Somatostatin receptor CEREP ligand profiling; assay type: protein assay; settings: Compound concentration 10.0 uM
[24] = biological target: Death-associated protein kinase 3 (Homo sapiens, UniProt O43293); experiment: Inhibition of DAPK3 at compound concentration of 10.0 uM using the ScanMax (DiscoverX)
[25] = biological target: Prostacyclin receptor (Homo sapiens) (UniProt P43119); experiment: Prostaglandin I2 receptor CEREP ligand profiling; settings: Compound concentration 10.0 uM
[26] = biological target: Endothelin receptor type B (Homo sapiens) (UniProt P24530); settings: Compound concentration 10.0 uM
[27] = biological target: T2, 5-hydroxytryptamine receptor 1A (Homo sapiens) (UniProt P08908); experiment: 5-Hydroxytryptamine1A (h) CEREP ligand profiling; settings: Compound concentration 10.0 uM
T2 sequence (whole entry): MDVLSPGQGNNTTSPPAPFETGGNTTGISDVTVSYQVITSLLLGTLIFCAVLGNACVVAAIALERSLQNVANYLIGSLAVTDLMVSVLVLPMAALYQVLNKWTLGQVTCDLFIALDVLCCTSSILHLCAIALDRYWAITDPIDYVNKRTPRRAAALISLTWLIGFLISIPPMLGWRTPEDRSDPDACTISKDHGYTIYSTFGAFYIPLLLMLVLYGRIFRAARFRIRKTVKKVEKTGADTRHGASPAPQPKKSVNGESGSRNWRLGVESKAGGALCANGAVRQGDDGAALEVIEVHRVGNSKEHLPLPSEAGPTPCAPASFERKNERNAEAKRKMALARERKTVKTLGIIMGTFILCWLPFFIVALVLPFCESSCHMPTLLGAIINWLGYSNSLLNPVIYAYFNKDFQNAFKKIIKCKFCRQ

[28] = biological target: 5-hydroxytryptamine receptor 7 (Homo sapiens) (UniProt P34969); settings: Compound concentration 10.0 uM
[29] = biological target: Kappa-type opioid receptor (Homo sapiens, UniProt P41145); experiment: kappa-Opioid receptor (h) CEREP ligand profiling; settings: Compound concentration 10.0 uM

5-hydroxytryptamine receptor 2B, sequence (P41595 whole entry): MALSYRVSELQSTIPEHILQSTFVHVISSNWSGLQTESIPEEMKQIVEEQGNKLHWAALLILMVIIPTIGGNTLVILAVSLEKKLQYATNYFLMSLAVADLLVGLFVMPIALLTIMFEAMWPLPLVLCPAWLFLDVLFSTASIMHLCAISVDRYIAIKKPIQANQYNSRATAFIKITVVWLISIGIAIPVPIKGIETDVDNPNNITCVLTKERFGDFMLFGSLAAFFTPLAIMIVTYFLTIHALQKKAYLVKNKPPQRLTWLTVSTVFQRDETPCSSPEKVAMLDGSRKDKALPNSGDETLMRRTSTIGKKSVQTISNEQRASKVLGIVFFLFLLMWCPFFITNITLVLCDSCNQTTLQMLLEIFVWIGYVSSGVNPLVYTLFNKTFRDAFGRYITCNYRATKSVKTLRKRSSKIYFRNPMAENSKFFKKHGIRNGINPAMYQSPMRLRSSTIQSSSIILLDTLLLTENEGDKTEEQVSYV
Endothelin receptor type B (Homo sapiens), sequence (P24530 whole entry): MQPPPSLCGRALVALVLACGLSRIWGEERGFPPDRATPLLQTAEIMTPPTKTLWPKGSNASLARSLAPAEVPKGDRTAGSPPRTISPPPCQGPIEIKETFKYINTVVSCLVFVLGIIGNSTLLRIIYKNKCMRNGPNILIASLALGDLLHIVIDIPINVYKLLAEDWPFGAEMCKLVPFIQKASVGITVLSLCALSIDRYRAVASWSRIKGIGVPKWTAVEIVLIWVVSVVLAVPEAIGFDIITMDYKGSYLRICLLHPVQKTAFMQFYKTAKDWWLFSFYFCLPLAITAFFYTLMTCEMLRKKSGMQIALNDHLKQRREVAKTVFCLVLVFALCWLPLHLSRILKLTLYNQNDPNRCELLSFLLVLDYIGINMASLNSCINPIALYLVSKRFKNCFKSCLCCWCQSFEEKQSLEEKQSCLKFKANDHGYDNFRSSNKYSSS
Cholecystokinin receptor type A (Homo sapiens), sequence (P32238 whole entry): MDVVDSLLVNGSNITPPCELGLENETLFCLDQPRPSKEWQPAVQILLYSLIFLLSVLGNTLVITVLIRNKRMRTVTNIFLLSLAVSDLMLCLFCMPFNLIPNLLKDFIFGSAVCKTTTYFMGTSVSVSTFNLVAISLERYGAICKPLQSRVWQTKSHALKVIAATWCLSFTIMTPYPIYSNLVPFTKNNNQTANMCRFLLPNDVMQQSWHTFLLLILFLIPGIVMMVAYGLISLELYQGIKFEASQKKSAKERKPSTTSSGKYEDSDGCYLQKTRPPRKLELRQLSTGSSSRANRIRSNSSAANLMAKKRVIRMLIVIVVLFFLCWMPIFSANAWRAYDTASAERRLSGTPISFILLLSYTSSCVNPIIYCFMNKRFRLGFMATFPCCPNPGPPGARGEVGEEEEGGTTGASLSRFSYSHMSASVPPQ
Thromboxane A2 receptor (Homo sapiens), sequence (P21731 whole entry): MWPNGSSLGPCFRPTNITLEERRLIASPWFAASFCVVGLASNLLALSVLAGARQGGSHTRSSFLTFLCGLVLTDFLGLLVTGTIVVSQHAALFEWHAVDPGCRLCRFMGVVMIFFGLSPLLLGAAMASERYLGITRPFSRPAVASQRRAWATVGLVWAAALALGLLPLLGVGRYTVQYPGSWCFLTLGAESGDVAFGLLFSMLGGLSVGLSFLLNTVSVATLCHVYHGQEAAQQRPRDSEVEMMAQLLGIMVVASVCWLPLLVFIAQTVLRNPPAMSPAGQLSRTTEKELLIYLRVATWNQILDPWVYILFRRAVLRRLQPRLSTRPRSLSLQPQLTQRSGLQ
5-hydroxytryptamine receptor 5A (Homo sapiens), sequence (P47898 whole entry): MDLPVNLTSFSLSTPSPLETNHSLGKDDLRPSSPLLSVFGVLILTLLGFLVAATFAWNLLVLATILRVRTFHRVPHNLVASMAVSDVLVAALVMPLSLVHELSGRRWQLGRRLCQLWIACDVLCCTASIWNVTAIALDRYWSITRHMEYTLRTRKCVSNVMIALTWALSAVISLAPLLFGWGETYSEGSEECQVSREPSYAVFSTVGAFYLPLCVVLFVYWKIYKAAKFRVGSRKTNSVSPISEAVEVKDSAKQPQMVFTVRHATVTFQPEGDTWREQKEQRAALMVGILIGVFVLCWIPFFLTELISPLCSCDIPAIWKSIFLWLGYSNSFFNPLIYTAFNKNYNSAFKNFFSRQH
Muscarinic acetylcholine receptor M4 (Homo sapiens), sequence (P08173 whole entry): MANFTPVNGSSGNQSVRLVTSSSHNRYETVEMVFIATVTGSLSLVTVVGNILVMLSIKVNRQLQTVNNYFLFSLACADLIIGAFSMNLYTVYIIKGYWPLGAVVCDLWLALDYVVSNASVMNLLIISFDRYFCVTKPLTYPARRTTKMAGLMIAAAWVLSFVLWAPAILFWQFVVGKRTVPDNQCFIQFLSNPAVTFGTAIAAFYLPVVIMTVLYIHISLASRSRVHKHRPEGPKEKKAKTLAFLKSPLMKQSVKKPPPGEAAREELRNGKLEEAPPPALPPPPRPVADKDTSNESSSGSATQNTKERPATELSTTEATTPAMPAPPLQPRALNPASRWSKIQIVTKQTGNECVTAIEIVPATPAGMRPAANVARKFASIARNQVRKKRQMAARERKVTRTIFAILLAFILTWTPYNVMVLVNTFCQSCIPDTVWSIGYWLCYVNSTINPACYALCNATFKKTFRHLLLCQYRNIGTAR
Beta-1 adrenergic receptor (Homo sapiens), sequence (P08588 whole entry, looked up): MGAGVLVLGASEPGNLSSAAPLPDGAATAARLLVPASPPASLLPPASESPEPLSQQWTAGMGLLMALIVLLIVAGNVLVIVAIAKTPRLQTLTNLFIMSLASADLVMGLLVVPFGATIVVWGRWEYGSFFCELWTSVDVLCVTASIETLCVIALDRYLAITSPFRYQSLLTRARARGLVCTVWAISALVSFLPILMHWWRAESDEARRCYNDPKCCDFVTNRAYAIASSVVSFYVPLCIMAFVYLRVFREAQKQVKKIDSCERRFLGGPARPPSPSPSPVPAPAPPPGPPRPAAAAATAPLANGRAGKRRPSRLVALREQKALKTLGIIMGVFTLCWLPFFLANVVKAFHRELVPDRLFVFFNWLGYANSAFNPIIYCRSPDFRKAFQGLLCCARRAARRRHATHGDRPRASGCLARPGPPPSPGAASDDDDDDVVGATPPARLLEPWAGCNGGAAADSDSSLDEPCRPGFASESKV
Type-1 angiotensin II receptor (Homo sapiens), sequence (P30556 whole entry): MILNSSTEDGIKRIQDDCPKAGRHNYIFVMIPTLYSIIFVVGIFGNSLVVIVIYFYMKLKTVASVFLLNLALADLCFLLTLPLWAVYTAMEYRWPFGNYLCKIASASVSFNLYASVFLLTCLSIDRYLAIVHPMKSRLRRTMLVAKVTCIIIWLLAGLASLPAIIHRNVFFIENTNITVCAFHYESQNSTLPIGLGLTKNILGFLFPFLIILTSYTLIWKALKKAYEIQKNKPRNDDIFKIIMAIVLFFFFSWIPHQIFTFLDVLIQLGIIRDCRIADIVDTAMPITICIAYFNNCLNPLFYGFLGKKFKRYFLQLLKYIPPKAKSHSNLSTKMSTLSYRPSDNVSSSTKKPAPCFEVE
5-hydroxytryptamine receptor 7 (Homo sapiens), sequence (P34969 whole entry): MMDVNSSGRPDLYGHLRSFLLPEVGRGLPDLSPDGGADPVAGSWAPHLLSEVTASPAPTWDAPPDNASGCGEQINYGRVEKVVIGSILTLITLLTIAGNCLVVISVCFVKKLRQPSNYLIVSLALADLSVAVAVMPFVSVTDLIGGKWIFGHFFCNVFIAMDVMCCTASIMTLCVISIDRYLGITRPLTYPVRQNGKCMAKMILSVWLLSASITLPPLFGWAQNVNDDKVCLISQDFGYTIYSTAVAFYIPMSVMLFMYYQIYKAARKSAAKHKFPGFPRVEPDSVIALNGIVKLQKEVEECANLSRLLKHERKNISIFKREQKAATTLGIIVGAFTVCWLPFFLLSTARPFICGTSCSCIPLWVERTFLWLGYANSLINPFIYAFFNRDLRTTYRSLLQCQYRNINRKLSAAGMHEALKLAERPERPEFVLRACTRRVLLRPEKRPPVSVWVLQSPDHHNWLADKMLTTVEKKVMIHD
Sodium-dependent noradrenaline transporter (Homo sapiens), sequence (P23975 whole entry): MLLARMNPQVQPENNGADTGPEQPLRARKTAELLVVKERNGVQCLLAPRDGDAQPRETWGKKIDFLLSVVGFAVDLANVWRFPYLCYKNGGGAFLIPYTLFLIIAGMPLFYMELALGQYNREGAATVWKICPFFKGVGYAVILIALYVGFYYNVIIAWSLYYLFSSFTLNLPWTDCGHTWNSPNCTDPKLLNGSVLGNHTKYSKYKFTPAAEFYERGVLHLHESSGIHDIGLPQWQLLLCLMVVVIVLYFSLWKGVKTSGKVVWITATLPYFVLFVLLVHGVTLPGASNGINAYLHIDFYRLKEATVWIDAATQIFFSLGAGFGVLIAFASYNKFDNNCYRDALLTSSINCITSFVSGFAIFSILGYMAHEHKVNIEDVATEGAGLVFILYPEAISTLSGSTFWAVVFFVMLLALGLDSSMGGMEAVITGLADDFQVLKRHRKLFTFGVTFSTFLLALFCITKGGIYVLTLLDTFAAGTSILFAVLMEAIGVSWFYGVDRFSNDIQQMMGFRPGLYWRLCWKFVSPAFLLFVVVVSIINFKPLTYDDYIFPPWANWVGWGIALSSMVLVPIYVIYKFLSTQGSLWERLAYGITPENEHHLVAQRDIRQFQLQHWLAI
Prostacyclin receptor (Homo sapiens), sequence (P43119 whole entry): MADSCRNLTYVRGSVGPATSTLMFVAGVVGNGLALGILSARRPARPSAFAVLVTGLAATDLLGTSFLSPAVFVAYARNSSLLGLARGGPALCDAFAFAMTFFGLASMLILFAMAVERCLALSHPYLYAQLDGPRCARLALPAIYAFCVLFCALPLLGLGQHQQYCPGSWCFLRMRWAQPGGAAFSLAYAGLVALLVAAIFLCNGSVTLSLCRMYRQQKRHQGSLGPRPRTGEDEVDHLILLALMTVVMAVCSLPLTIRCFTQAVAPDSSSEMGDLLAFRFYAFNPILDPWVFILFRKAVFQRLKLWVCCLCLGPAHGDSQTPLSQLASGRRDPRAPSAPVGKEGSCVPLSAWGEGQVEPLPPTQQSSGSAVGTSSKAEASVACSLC

In the case of CCCCN(CCCC)C(=O)CN1C[C@@H](c2cc(OC)c3c(c2)OCO3)[C@H](C(=O)O)[C@H]1CC(C)(C)CCC [A-545], the inhibition [1] is reported as 38.5%, the inhibition [2] is reported as 56.1% and the inhibition [3] is reported as -3.72%. The Ki ([4]; read-out: Ki) was 6.52 µM and the Ki ([4]; read-out: pKi (converted)) was 5.82 µM.

For CCCCN(CCCC)C(=O)CN1C[C@H](c2cc(OC)c3c(c2)OCO3)[C@@H](C(=O)O)[C@@H]1CC(C)(C)CCC [ABT-546], the inhibition [5] was -6.6%, the inhibition at 10 µM [6] was 22% (not active) and the inhibition [7] was 17%. For the same compound, the inhibition [8] was < 10%, the inhibition [9] was < 10% and the inhibition [10] was < 10%. For the same compound, the inhibition [11] was 18%, the inhibition at 10 µM [12] was < 10% (not active) and the inhibition [13] was < 10%. The inhibition [14] was < 10%, the inhibition [15] was 16% and the inhibition [16] was < 10%. For the same compound, the inhibition [17] was 32%, the inhibition [18] was < 10% and the inhibition [19] was < 10%. For the same compound, the inhibition [20] was < 10%, the inhibition [21] was < 10% and the inhibition [22] was < 10%. The inhibition [23] was < 10%, the Kd [24] was > 10 µM (not active) and the inhibition [25] was 15%. For the same compound, the inhibition [26] was 56%, the inhibition [27] was < 10% and the inhibition [28] was -2.24%. For the same compound, the inhibition [29] was 28%.
